28 compounds from US11111235B2 (Denali Therapeutics Inc., priority 2016, dated 2021) can be followed below.

The IC50 is the midpoint of a concentration-inhibition curve.

The target in series [1] is LRRK2 G2019S (Homo sapiens (Human), UniProt Q5S007, G2019S). Nature of the series: LRRK2 G2019S TR-FRET biochemical assay (LRRKtide substrate). The note with it: 134 μM ATP. As for the experimental part:
Materials: • LRRK2 G2019S enzyme • Substrate (LRRKtide) • ATP • TR-FRET dilution buffer • pLRRKtide antibody • 384-well assay plate • DMSO
Enzyme Reaction Conditions • 50 mM Tris pH 7.5, 10 mM MgCl2, 1 mM EGTA, 0.01% Brij-35.2 mM DTT • 5 nM LRRK2 • 134 μM ATP • 60 minute reaction time • 23° C. reaction temperature • 10 μL total reaction volume
Detection Reaction Conditions • 1× TR-FRET dilution buffer • 10 mM EDTA • 2 nM antibody • 23° C. reaction temperature • 10 μL total reaction volume
Compounds were prepared by initially diluting to 1 mM with DMSO. 35 μL of reference compound solution, 35 μL of test compound solution, and 35 μL HPE were successively added to the source plate (384-well assay plate, Labcyte). The plates were centrifuged at 2500 rpm for 1 minute and sealed in foil. POD was used to perform a 3.162 fold serial dilution and 100 nL of reference compound solution, test compound solution, HPE and ZPE were transferred to assay plates. The assay plate was centrifuged at 2500 rpm for 1 minute, and sealed with foil.
To perform the enzyme reaction, 5 μL of LRRKtide substrate and kinase mixture in assay buffer was added to all wells of the assay plate. The plate was centrifuged to concentrate the mixture at the bottom of the wells. The assay plate was incubated at 23° C. for 20 minutes. Following incubation, 5 μL of 2×ATP in assay buffer was added to each well, and plates were centrifuged to concentrate the mixture at the bottom of the wells. The plate was incubated at 23° C. for 60 minutes.
To perform the detection of the reaction, EDTA completely mixed in TR-FRET dilution buffer was added to antibody reagent. 10 μL of detection reagent was added to all wells of each well of the assay plate and the plate was centrifuged to concentrate the mixture at the bottom of the wells. The plate was then incubated at 23° C. for 60 minutes. Plates were read on Perkin Elmer Envision 2104 instrument in TR-FRET mode using 340 nm excitation filter, 520 nm fluorescence emission filter, and 490 or 495 nm terbium emission filter.
Background: Time-resolved FRET reads energy transfer from a long-lived donor to a nearby acceptor.

Series [2] can be described thus: Metabolic stability in human liver microsomes. It is filed as in vitro ADME. The note with it: projected human hepatic clearance scaled from microsomal Clint, well-stirred model. As for the experimental part: Metabolic stability of compounds was evaluated in human liver microsomes (from Corning or XenoTech, LLC) using a 96-well plate assay format. Compounds were incubated at 37° C. at […] final concentration in the microsomal matrix (0.5 mg/mL total protein) in the presence or absence of NADPH cofactor. An NADPH regenerating system, comprised of NADP, MgCl2, isocitric acid, and isocitrate dehydrogenase, was used in the assay. Enzymatic reactions were conducted for 0, 5, 10, 20, 30, or 60 min before termination by addition of acetonitrile containing tolbutamide and labetalol internal standards (100 ng/mL). After shaking for 10 min, plates were subjected to centrifugation (4000 rpm at 4° C.) for 20 min and supernatants were mixed 1:3 with HPLC grade water. Samples were analyzed by LC-MS/MS using appropriate MRM transitions for each analyte and internal standard (IS). Analyte/IS peak area ratios were used to determine percent compound remaining at each time point. Intrinsic clearance (Clint; expressed as mL·min^−1·mg^−1) was calculated from the first order elimination constant (k, min^−1) of test article decay and the volume of the incubation. These values were scaled to intrinsic organ clearance (Clint) using human specific scaling factors (48.8 mg microsomal protein per g liver; 25.7 g liver per kg body weight). Organ Clint was subsequently converted to hepatic clearance (CLhep, mL·min-1·kg-1) using the well-stirred model of hepatic elimination, where Qh is human hepatic blood flow (20.7 mL·min-1·kg-1).
CLhep is the projected human clearance in the liver based on the above in vitro assay. A lower value is indicative of less compound being removed by the liver.
(Liver microsomes are a subcellular fraction often used to study metabolism.)

Where only a bound is given, the exact number is not on record here.

Chain of LRRK2 G2019S (Q5S007 whole entry G2019S): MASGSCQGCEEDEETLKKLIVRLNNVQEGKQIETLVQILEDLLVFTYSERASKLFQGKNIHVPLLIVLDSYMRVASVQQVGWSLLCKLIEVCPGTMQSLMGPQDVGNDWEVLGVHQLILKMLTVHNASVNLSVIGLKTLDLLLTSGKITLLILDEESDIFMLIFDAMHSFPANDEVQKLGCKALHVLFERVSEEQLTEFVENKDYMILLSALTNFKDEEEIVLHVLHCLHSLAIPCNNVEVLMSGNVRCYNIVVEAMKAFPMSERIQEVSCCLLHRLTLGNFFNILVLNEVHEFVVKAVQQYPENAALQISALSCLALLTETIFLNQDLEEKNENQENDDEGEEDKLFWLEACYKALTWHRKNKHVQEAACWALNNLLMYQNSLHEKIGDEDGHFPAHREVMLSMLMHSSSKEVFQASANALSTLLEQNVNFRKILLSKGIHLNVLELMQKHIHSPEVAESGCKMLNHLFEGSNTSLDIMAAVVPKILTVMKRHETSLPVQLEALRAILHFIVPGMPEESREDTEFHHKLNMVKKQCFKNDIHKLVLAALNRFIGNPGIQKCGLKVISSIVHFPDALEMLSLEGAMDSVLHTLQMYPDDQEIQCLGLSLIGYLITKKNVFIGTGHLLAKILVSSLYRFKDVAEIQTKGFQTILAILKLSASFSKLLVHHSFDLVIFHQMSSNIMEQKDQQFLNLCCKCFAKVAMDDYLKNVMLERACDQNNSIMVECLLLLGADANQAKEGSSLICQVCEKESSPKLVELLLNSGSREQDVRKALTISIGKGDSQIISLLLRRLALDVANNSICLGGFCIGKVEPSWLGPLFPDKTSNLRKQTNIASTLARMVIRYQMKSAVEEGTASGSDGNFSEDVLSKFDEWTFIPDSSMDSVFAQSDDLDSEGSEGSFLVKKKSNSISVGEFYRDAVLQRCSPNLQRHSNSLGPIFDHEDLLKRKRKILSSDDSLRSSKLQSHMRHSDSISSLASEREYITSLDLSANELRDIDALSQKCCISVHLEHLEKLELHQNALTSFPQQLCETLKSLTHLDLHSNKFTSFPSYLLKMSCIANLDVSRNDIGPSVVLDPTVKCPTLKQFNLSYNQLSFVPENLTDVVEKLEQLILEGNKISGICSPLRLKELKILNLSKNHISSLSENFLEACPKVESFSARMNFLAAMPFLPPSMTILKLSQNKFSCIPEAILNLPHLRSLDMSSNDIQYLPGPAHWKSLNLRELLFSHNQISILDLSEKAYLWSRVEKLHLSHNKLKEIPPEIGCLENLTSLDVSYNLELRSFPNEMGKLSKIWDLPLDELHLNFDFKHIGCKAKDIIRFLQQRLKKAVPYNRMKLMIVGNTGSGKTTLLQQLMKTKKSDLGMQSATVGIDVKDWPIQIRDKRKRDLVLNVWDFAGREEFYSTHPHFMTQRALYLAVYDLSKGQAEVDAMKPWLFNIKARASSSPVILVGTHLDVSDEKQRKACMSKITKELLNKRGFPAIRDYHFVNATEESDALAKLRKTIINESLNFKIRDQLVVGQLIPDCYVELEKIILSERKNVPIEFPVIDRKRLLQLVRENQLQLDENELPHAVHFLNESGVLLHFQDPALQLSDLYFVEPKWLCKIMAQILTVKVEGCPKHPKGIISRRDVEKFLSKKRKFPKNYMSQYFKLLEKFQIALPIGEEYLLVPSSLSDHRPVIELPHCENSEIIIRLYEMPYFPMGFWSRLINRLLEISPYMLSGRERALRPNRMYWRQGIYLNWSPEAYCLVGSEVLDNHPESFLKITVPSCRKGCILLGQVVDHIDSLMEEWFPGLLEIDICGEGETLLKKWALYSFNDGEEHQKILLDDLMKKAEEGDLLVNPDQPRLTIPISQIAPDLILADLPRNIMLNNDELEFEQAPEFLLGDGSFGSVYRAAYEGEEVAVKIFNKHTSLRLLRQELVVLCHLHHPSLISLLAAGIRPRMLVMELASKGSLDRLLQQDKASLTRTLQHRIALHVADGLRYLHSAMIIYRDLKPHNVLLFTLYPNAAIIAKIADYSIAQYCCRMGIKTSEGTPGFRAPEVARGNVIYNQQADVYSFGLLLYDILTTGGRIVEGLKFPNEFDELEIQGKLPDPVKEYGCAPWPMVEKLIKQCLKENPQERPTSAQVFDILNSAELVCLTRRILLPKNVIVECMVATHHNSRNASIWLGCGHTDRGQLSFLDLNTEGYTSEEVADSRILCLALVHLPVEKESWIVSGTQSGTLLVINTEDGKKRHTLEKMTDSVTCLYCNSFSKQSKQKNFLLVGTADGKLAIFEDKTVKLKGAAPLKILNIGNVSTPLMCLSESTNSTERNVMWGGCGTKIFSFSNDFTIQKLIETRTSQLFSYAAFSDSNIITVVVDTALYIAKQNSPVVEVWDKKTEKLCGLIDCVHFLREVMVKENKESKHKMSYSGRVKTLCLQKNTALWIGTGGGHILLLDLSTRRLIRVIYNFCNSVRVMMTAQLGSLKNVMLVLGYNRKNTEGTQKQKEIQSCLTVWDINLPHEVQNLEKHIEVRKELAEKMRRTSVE

Consider `CCNc1nc(Nc2cn(C3C[C@H]3C#N)nc2C2CC2)ncc1Br` (single isomer, unassigned) [Compound 215], for which, in series [1] (class symbols), the half-maximal inhibitory concentration (IC50) is less than 30 nM. Take `CNc1nc(Nc2cnn(C3CN(C4COC4)CCC3(F)F)c2Cl)ncc1C(F)(F)F` (centres unmarked) [Compound 28]: the IC50 in series [1] (class symbols) is less than 30 nM. Compound `CCNc1nc(Nc2cn(C3(C)CCOC3=O)nc2C)ncc1C(F)(F)F` (centres unmarked) [Compound 100] yielded an IC50 in series [1] (class symbols) of less than 30 nM. In series [1] (class symbols), `CCNc1nc(Nc2cn(C3C[C@@H]3C#N)nc2C2CC2)ncc1Br` (single isomer, unassigned) [Compound 214] registered an IC50 of less than 30 nM. With `CNc1nc(Nc2cc(C3(C)CCOC3=O)nn2C2CC2)ncc1C(F)(F)F` (centres unmarked) [Compound 155], in series [2], the “Human liver microsomes CLhep” value stood at 5.519 mL/min/kg. Further, the midpoint of inhibition in series [1], the IC50, lay at 1.95 nM.

For the compound `CCNc1nc(Nc2cn(C3(C)CCOC3=O)nc2C2CC2)ncc1Br` (centres unmarked) [Compound 114], the “Human liver microsomes CLhep” value in series [2] stood at 16.508 mL/min/kg. Moreover, the IC50 in series [1] was 1.05 nM; in series [1] (class symbols), less than 30 nM. As for `Cc1nn(C2(C)CCOC2=O)cc1Nc1ncc(C(F)(F)F)c(C2CC2)n1` (centres unmarked) [Compound 103], the IC50 in series [1] (class symbols) was less than 30 nM. As to `CCNc1nc(Nc2cc(C3(C)CCOC3=O)nn2C2CC2)ncc1Br` (centres unmarked) [Compound 150], the “Human liver microsomes CLhep” value in series [2] was 11.077 mL/min/kg. The compound further came in with an IC50 in series [1] of 1.22 nM. As to `CNc1nc(Nc2cn(C3C[C@H]3C#N)nc2C2CC2)ncc1C(F)(F)F` (single isomer, unassigned) [Compound 209], the half-inhibitory concentration (IC50) in series [1] (class symbols) was less than 30 nM. As to `CCNc1nc(Nc2cn(C3(C)CCOC3=O)nc2C2CC2)ncc1C(F)(F)F` (centres unmarked) [Compound 104], in series [2], the “Human liver microsomes CLhep” value is 11.59 mL/min/kg. Also, 0.96 nM corresponded to half-maximal inhibition in series [1] (IC50).

In turn, `CNc1nc(Nc2cn(C3(C)CCOC3=O)nc2Cl)ncc1C(F)(F)F` (centres unmarked) [Compound 99] registered an IC50 in series [1] (class symbols) of less than 30 nM. Consider `[2H]C([2H])([2H])n1nc(C(C)(C)n2nccn2)cc1Nc1ncc(C(F)(F)F)c(NCC)n1` [Compound 34, N4-ethyl-N2-[1-(^2H3)methyl-3-[2-(2H-1,2,3-triazol-2-yl)propan-2-yl]-1H-pyrazol-5-yl]-5-(trifluoromethyl)pyrimidine-2,4-diamine], for which, in series [2], the “Human liver microsomes CLhep” value came to 0.75 mL/min/kg. In the case of `CCNc1nc(Nc2cn(C3(C)CCOC3=O)nc2Cl)ncc1C(F)(F)F` (centres unmarked) [Compound 117], the IC50 in series [1] (class symbols) was less than 30 nM. On the same count and under the same terms, as for `COc1nc(Nc2cn(C3(C)CCNC3=O)nc2C)ncc1Br` (centres unmarked) [Compound 64A], the figure is less than 30 nM. In series [1] (class symbols), `CCNc1nc(Nc2cnn(C3CCCN(CC(F)F)C3)c2C)ncc1C(F)(F)F` (centres unmarked) [Compound 116] yielded an IC50 of less than 30 nM.

In series [1] (class symbols), `CCN1CCC(F)(F)C(n2ncc(Nc3ncc(C(F)(F)F)c(NC)n3)c2Cl)C1` (centres unmarked) [Compound 202] showed a half-maximal inhibitory concentration (IC50) of less than 30 nM.

Consider `CCNc1nc(Nc2cnn3c2CC(C#N)C3)ncc1C(F)(F)F` (centres unmarked) [Compound 52A], for which the IC50 in series [1] (class symbols) is less than 30 nM. Same read-out and setting: as for `CNc1nc(Nc2cn(C3(C)CCOC3=O)nc2C)ncc1C(F)(F)F` (centres unmarked) [Compound 119], the figure is less than 30 nM. In turn, `COc1nc(Nc2cn(C3(C)CCOC3=O)nc2C)ncc1Br` (centres unmarked) [Compound 102] gave a 50% inhibitory concentration (IC50) in series [1] (class symbols) of less than 30 nM. Turning to `N#C[C@@H]1CC1n1cc(Nc2ncc(C(F)(F)F)c(NCC(F)F)n2)c(C2CC2)n1` (single isomer, unassigned) [Compound 210], the IC50 in series [1] (class symbols) is less than 30 nM. `CCNc1nc(Nc2cc(C3(C)CCn4ncnc43)nn2C2CC2)ncc1C(F)(F)F` (centres unmarked) [Compound 172]: the “Human liver microsomes CLhep” value in series [2] is reported as 19.9 mL/min/kg. Further, the IC50 in series [1] is 1.47 nM; in series [1] (class symbols) it was less than 30 nM.

In series [1] (class symbols), `CCNc1nc(Nc2cnn(C3CNCCC3(F)F)c2C)ncc1C(F)(F)F` (centres unmarked) [Compound 200] registered an IC50 of less than 30 nM. `CNc1nc(Nc2cn(C3C[C@@H]3C#N)nc2C2CC2)ncc1C(F)(F)F` (single isomer, unassigned) [Compound 208] yielded an IC50 in series [1] (class symbols) of less than 30 nM. As for `CNc1nc(Nc2cn(C(C)(C)c3ncn(C)n3)nc2C)ncc1C(F)(F)F` [Compound 218], in series [2], the “Human liver microsomes CLhep” value came to 0 mL/min/kg. Compound `CCNc1nc(Nc2cn(C3C[C@@H]3C#N)nc2Cl)ncc1C(F)(F)F` (single isomer, unassigned) [Compound 206] showed an IC50 in series [1] (class symbols) of less than 30 nM.

Turning to `CCNc1nc(Nc2cnn3c2CC(n2nccn2)C3)ncc1C(F)(F)F` (centres unmarked) [Compound 54A], the IC50 in series [1] (class symbols) was less than 30 nM. Regarding `CNc1nc(Nc2cnn(C3CCCC3(C)O)c2C)ncc1C(F)(F)F` (centres unmarked) [Compound 30], the IC50 in series [1] (class symbols) lay within 30 to 60 nM. In the case of `CCNc1nc(Nc2cn(C3C[C@H]3C#N)nc2Cl)ncc1C(F)(F)F` (single isomer, unassigned) [Compound 207], the IC50 in series [1] (class symbols) is less than 30 nM.
